Experimental data: US12403132B2, “Methods of treating bone marrow failure syndromes and compositions for use in the same” (The Board of Trustees of the Leland Stanford Junior …, priority 2020, dated 2025)
Like-named read-outs stand apart in the source and are kept apart here.

What was measured:
CD235+ erythroblasts = experiment: CD235+ erythroid expansion of differentiating human cord blood CD34+ progenitors (shRPS19/shRPL11 DBA models), flow cytometry; format: cell-based; settings: for CD235+ erythroid expansion in RPS19-insufficiency, % of control: 6.6% of controls (shLuc) untreated; for fold increase of erythroid expansion in response to SD208: 5 μM; for increase of erythroid expansion in RPS19-insufficiency: concentrations published to block TGFβ signaling, 15 days
Method: FIG. 7. […] (a) Differentiating cord blood CD34+ progenitors were transduced with shRNA against luciferase or RPS19 and treated with inhibitors at working concentrations for TGFβ inhibition every three days. Cells were counted and CD235+ erythroid cells were assessed by flow cytometry after 15 days. (b) Prior to flow cytometry, 5000 cells per group were taken from differentiating cultures for NLK kinase assay. (c) CD34+ progenitors were transduced with shRNA against luciferase or RPS19 and non-targeting or siRNA against NLK. After sorting, samples were split into two groups and either treated with vehicle or SD208 every three days. After 15 days cells were counted and subject to flow cytometry to compare the expansion of maturing CD235+ erythroid (left panel) and CD11b+ myeloid cells (right panel). (d) Cord Blood CD34+ progenitors were transduced with shRNA against luciferase (left panel) or RPS19 (right panel) differentiated in erythroid media for 15 days alone, or in the presence of SB525334 or SD208 at 5 μM. Cells were counted and CD235+ erythroid (D—upper) and CD11b+ myeloid cell (D—lower) percentages were determined by flow cytometry. The number of erythroid or myeloid cells is expressed as a percentage of the number of that lineage with no cytokine or drug treatment.
FIG. 8. […] Human cord blood CD34+ progenitors were transduced with lentivirus co-expressing GFP with shRNA against luciferase (shLuc), RPS19 (shRPS19) or RPL11 (shRPL11). After 36 hours cells GFP+ cells were differentiated in erythroid media in the presence or absence of 5 μM SD208 for 15 days. Cells were counted and assessed for cell surface expression of CD235. (a) The percentage of CD235+ cells was multiplied by the cell count and values were compared as a percentage of untreated controls. (b) Normalizing values relative to untreated RPS19-insufficiency progenitors facilitates direct comparison of erythropoiesis between untreated and SD208-treated cultures. (c) Approximately 3000 cells were removed from differentiating treatments at day 6 and NLK activity was assessed. Values were normalized to reflect a fold induction relative to untreated controls. (d) Lin-Kit+ hematopoietic progenitors were obtained from three mouse embryos expressing tetracycline-inducible shRNA against RPS19 at day E14.5 or three untreated mice, and thee mature RPL11^+/+ or three mature RPL11^+/lox mice treated with tamoxifen for eight weeks. Cells were grown in the presence or absence of doxycycline and/or SD208 for eight days prior to counting and assessing for ter119 surface expression. Values were expressed as a percentage relative to untreated controls (e) and directly comparing the effect of SD208 on erythropoiesis in ribosomal-insufficiency by expressing values relative to untreated ribosome-insufficient cultures (f). At day 5 approximately 3000 cells were assayed for NLK kinase assay (g). CD34+ HSPCs were isolated from three healthy control and three DBA patient mononuclear bone marrow aspirates by magnetic bead sorting and differentiated in the presence or absence of SD208 for 14 days. After counting the total cell population, the ratio of CD235+ erythroblasts was determined by flow cytometry and number of CD235+ erythroblasts calculated. This was expressed as a percentage of the average number of erythroid cells present in untreated healthy controls. (h) The direct effect of SD208 on erythroid expansion in DBA patient samples was calculated following normalization of untreated DBA patient samples as 1-fold, (i) At day five, 3000 cells from each of the differentiating cultures was analyzed for NLK activity by kinase assay and are expressed as a fold induction relative to untreated healthy controls.

[1] = system: c-Kit+ erythroid progenitors in murine RPS19-insufficiency; experiment: c-Kit+ erythroid expansion screen, tet-shRPS19 murine fetal liver cells (Cell titer-Glo); format: cell-based, mouse; settings: for rescue of c-Kit+ erythroid expansion: 10 μM, murine RPS19-insufficient model; for EC50: read-out: EC50 of rescue of erythroid growth in murine RPS19-insufficiency
miR-208 = experiment: miRNA expression in vehicle-, metformin- and ginsenoside Rb1-treated HSPCs; format: cell-based, human
Description: The abundance of let-7, miR-30 miR-144 and miR-132 were expressed 40.1-, 2.2-, 5.0- and 18.3-fold higher than miR-208, whereas miR-208 was expressed 1.6- and 2.1-fold higher than miR-199 and miR-499. MiR-26a (induced by metformin) expression was 1.4-fold higher than miR-208.

With `Fc1ccc(Cl)cc1-c1nc(Nc2ccncc2)c2nccnc2n1` [SD208] the “CD235+ erythroid expansion in RPS19-insufficiency, % of control” value (shortened to “CD235+ erythroid expansion … % of control”) (CD235+ erythroblasts) was 41.5%, the “fold increase of erythroid expansion in response to SD208” value (CD235+ erythroblasts; RPL11-insufficiency) was 6.9 fold and the “erythroid expansion, % of untreated controls” value (CD235+ erythroblasts; RPL11-insufficiency, SD208 5 μM, 5.8% untreated) was 36.7%. The “fold increase of erythroid expansion in response to SD208” value (CD235+ erythroblasts; RPS19-insufficiency) was 4.7 fold, the “erythroid expansion, % of untreated controls” value (CD235+ erythroblasts; RPS19-insufficiency, SD208 5 μM, 8.7% untreated) was 38.7% and the “RPS19-insufficient erythroid expansion, fold of non-TGFβ-treated cells” value (CD235+ erythroblasts; TGFβ-treated, SD208 5 μM) was 4.1 fold. For the same compound, the “increase of erythroid expansion in RPS19-insufficiency” value (shortened to “increase … in RPS19-insufficiency”) (CD235+ erythroblasts) was 6.3 fold, the “rescue of c-Kit+ erythroid expansion” value [1] was “significantly rescued” and the EC50 [1] was 0.7 µM.

`CC(C)=CCC[C@](C)(O[C@@H]1O[C@H](CO[C@@H]2O[C@H](CO)[C@@H](O)[C@H](O)[C@H]2O)[C@@H](O)[C@H](O)[C@H]1O)[C@H]1CC[C@]2(C)[C@@H]1[C@H](O)C[C@@H]1[C@@]3(C)CC[C@H](O[C@@H]4O[C@H](CO)[C@@H](O)[C@H](O)[C@H]4O[C@@H]4O[C@H](CO)[C@@H](O)[C@H](O)[C@H]4O)C(C)(C)[C@@H]3CC[C@]12C` [ginsenoside Rb1] was tested, and the “induction of miR-208” value (miR-208; ginsenoside Rb1-treated HSPCs) was 1.9 fold.

For `CN(C)C(=N)N=C(N)N` [metformin], the “induction of miR-499, miR-208, miR-132” value (miR-208; metformin-treated HSPCs) was “None of these miRNAs were induced”.

`Cc1cccc(-c2nn3c(c2-c2ccnc4ccc(C(N)=O)cc24)CCC3)n1` [Galunisertib] was tested, and the “CD235+ erythroid expansion … % of control” value (CD235+ erythroblasts) was 21% and the “increase … in RPS19-insufficiency” value (CD235+ erythroblasts) was 3.2 fold.

`NC(=O)c1ccc(-c2nc(-c3ccc4c(c3)OCO4)c(-c3ccccn3)[nH]2)cc1` [SB431542] was tested, and the “CD235+ erythroid expansion … % of control” value (CD235+ erythroblasts) was 21%, the “increase … in RPS19-insufficiency” value (CD235+ erythroblasts) was 3.2 fold and the “rescue of c-Kit+ erythroid expansion” value [1] was “significantly rescued”. The EC50 ([1]; Mus musculus) was 5 µM.
